Source: patent publication US6962909B2, “Treatment of neovascularization disorders with squalimine” (Genaera Corporation, priority 1995, dated 2005)
≈ marks a conversion by molar mass, not a printed value.

Columns and labels:
[1] = tested on: S. aureus; assay: Antibiotic activity, MIC; type: cell-based; conditions: Staphylococcus aureus
[2] = tested on: C. albicans; assay: Antibiotic activity, MIC; conditions: Candida albicans
[3] = tested on: E. coli; assay: Antibiotic activity, MIC; type: cell-based; conditions: Escherichia coli
[4] = tested on: P. aerug; assay: Antibiotic activity, MIC
[5] = tested on: human microvascular cells; assay: Endothelial cord formation assay; type: cell-based; note: key: + = Inhibition of angiogenesis; − = No inhibition of angiogenesis; T = Toxic; *= cell rounding @ 10 µg/ml
Excerpt: Endothelial cells have the capacity in vitro to form tubular aggregates resembling capillaries in various early stages of formation. This conversion occurs under relatively specific conditions, in which essential growth factors along with an effective substratum are provided. It has been shown that both the interaction of growth factors with the endothelial cell and its attachment to a substratum activate the NHE. The activation of this exchanger is believed to be required for subsequent morphologic transformation of the endothelial cell into a multicellular tubular structure.
To assess the effect of compounds on the cord-like structures formed by human microvascular cells when plated in the presence of VGEF (Vascular Endothelial Growth Factor) and basic fibroblast growth factor on a collagen matrix, a standard cord formation assay was used.

[6] = tested on: Stage 59-60 Xenopus tadpoles; assay: Xenopus tadpole assay; type: in vivo, Xenopus laevis; conditions: 10 μg/ml in water
Excerpt: A newly developed assay employing tadpoles, preferably Xenopus laevis Stages 59-60, were employed to study the effect of a compound by monitoring capillary occlusion in the tadpole's tail. […] The compounds of the invention affect the shape, viability and integrity of the embryonic tissues while not affecting the adult tissues, providing a powerful, highly specific screen. For example, substances that destroy all of the animal's epithelium, both adult and embryonic, could be regarded as toxic.
In this assay, tadpoles are introduced into Petri dishes containing a solution of the test compound in distilled water, preferably about 100 ml. The preferred concentration of the test compound is from about 1 μg/ml to about 10 μg/ml. The volume of liquid is sufficient for the animal to swim freely and drink from the solution. Thus, the effect observed results from oral absorption and subsequent systemic distribution of the agent. If the volume of liquid is not sufficient to permit oral intake, the effects that are observed would result from absorption through the surface epithelium. Thus, this simple assay can identify if an compound has characteristics of oral availability.
After an amount of time, typically about 60 minutes, the occlusion of blood flow through capillaries in the tadpole's tail are observed under an inverted microscope at a magnification of roughly 100×.
The tadpole assay described above provides an advantageous way to determine the pharmacological targets of each steroid when introduced into a mammal, and to determine pharmacological categories into which synthetic compounds belong. In the assay, each of the steroids was dissolved in 100 ml of distilled water at a concentration of 10 μg/ml. Stage 59-60 Xenopus tadpoles were introduced and evaluated by light microscopy and gross observation 1 hour later.

[7] = tested on: vitelline capillaries of 3- to 5-day chick embryo; assay: Chick embryo vitelline capillary regression assay; type: in vivo; design: key to Vascular reactivity (capillary regression): + = Vascular reactivity; 0 = No vascular reactivity; +/− = Equivocal reactivity; conditions: 60 minutes
Protocol: Using the chick embryo vitelline capillaries assay, compounds were tested for their ability to induce capillary regression. Each compound was applied in 0.1 ml of 15% Ficol 400 and PBS onto the embryo, and vascular regression was assessed after 60 minutes.
The 3-day chick embryo consists of an embryonic disc from which numerous vessels emerge and return, forming a “figure 8”-shaped structure—the embryo in the center with vascular loops extending outward over both poles. […] Following a lag period of around 15 minutes, the constriction of continuity between capillary and secondary vessels, generally on the “venous” side, was observed. Continued pulsatile blood flow progressed, resulting in a “swelling” of the blind tube, followed by a pinching off of the remaining connection and formation of an enclosed vascular sac resembling a “blood island.” This process progressed until only the largest vessels remained intact.

Row | Compound | MIC [1] | MIC [2] | MIC [3] | MIC [4] | Pharmacological category in tadpole assay (similarity to a reference steroid) [6] | further results
1 | CC(CCC(=O)O)[C@H]1CCC2C3CC[C@H]4C[C@@H](NCCCNCCCCN)CC[C@]4(C)C3CC[C@@]21C (stereo partly shown) | 64 mg/L (≈ 127 µM) | 8 mg/L (≈ 15.9 µM) | 32 to 64 mg/L (≈ 63.5 to 127 µM) | 32 mg/L (≈ 63.5 µM) |  | 
2 | COC(=O)CCC(C)[C@H]1CCC2C3C(CC[C@@]21C)[C@@]1(C)CC[C@@H](NCCN)C[C@H]1C[C@H]3O (stereo partly shown) [Compound 410] |  |  |  |  | functionally similar to compound 1437 | Effect on endothelial cord formation ([5]; 0.1 μg/ml): −; Effect on endothelial cord formation ([5]; 1.0 μg/ml): +; Vascular reactivity (capillary regression) ([7]; 0.001 μg applied): 0; Vascular reactivity (capillary regression) ([7]; 0.01 μg applied): +/−; Vascular reactivity (capillary regression) ([7]; 0.1 μg applied): +/−; Vascular reactivity (capillary regression) ([7]; 1 μg applied): +
3 | COC(O)CCC(C)[C@H]1CCC2C3C(CC[C@@]21C)[C@@]1(C)CC[C@H](NCCCNCCCCNCCCN)C[C@@H]1C[C@H]3O (stereo partly shown) | 2 to 4 mg/L (≈ 3.37 to 6.75 µM) | 16 mg/L (≈ 27 µM) | 64 mg/L (≈ 108 µM) | 128 mg/L (≈ 216 µM) |  | 
4 | CC(C)C(O)CCC(C)[C@H]1CCC2C3C(CC[C@@]21C)[C@@]1(C)CC[C@H](NCCCNCCCCN)C[C@@H]1C[C@H]3O (stereo partly shown) | 4 to 16 mg/L (≈ 7.3 to 29.2 µM) | 64 mg/L (≈ 117 µM) | 32 mg/L (≈ 58.4 µM) | 128 mg/L (≈ 234 µM) |  | 
5 | CC(CCC(=O)O)[C@H]1CCC2C3C(CC[C@@]21C)[C@@]1(C)CC[C@H](NCCCNCCCCNCCCN)C[C@H]1C[C@H]3O (stereo partly shown) [Compound 413] |  |  |  |  | effects like those produced by compound 1436 | Effect on endothelial cord formation ([5]; 0.1 μg/ml): −; Effect on endothelial cord formation ([5]; 1.0 μg/ml): −; Effect on endothelial cord formation ([5]; 10.0 μg/ml): +; Vascular reactivity (capillary regression) ([7]; 1 μg applied): 0
6 | C=C(C)C(=O)CCC(C)[C@H]1CCC2C3C(CC[C@@]21C)[C@@]1(C)CC[C@H](NCCCNCCCCN)C[C@@H]1C[C@H]3O (stereo partly shown) | 4 mg/L (≈ 7.35 µM) |  | 32 mg/L (≈ 58.8 µM) | 128 mg/L (≈ 235 µM) |  | 
7 | CC(C)CCCC(C)[C@H]1CCC2C3CC[C@H]4C[C@H](NCCCN5CCCCN=C5N)CC[C@]4(C)C3CC[C@@]21C (stereo partly shown) | 2 mg/L (≈ 3.7 µM) | 32 mg/L (≈ 59.2 µM) | > 256 mg/L | > 256 mg/L |  | 
8 | CC(C)CCCC(C)[C@H]1CCC2C3CC[C@H]4C[C@H](NCCCCN)CC[C@]4(C)C3CC[C@@]21C (stereo partly shown) | 4 mg/L (≈ 8.72 µM) | 64 mg/L (≈ 139 µM) | > 256 mg/L | > 256 mg/L |  | 
9 | C[C@@H](O)C1CCC2C3CC[C@H]4C[C@@H](NCCCNCCCCN)CC[C@]4(C)C3CC[C@@]21C (stereo partly shown) | 4 mg/L (≈ 8.93 µM) | 64 mg/L (≈ 143 µM) | 32 to 64 mg/L (≈ 71.5 to 143 µM) | 256 mg/L (≈ 572 µM) |  | 
10 | COC(=O)CCC(C)[C@H]1CCC2C3C(CC[C@@]21C)[C@@]1(C)CC[C@H](NCCCNCCCCN)C[C@@H]1C[C@H]3O (stereo partly shown) | 4 to 8 mg/L (≈ 7.49 to 15 µM) | 32 mg/L (≈ 59.9 µM) | 32 mg/L (≈ 59.9 µM) | 64 mg/L (≈ 120 µM) |  | 
11 | CC(C)C(CCC(C)[C@H]1CCC2C3C(CC[C@@]21C)[C@@]1(C)CC[C@@H](NCCCNCCCCN)C[C@@H]1C[C@H]3O)OS(=O)(=O)O (stereo partly shown) | 2 to 4 mg/L (≈ 3.18 to 6.37 µM) | 16 mg/L (≈ 25.5 µM) | 4 to 8 mg/L (≈ 6.37 to 12.7 µM) | 16 mg/L (≈ 25.5 µM) |  | 
12 | CC(C)C(O)CCC(C)[C@H]1CCC2C3C(CC[C@@]21C)[C@@]1(C)CC[C@@H](NCCCNCCCCN)C[C@@H]1C[C@H]3O (stereo partly shown) | 16 to 32 mg/L (≈ 29.2 to 58.4 µM) | 64 mg/L (≈ 117 µM) | 128 mg/L (≈ 234 µM) | 256 mg/L (≈ 467 µM) |  | 
13 | COC(=O)CCC(C)[C@H]1CCC2C3C[C@@H](O)[C@H]4C[C@@H](NCCN)CC[C@]4(C)C3CC[C@@]21C (stereo partly shown) [Compound 432] |  |  |  |  | functionally similar to compound 1437 | Effect on endothelial cord formation ([5]; 1.0 μg/ml): −; Effect on endothelial cord formation ([5]; 10.0 μg/ml): −
14 | CC(C)CCCC(C)[C@H]1CCC2C3C(CC[C@@]21C)[C@@]1(C)CC[C@H](NCCCNCCCCN)C[C@@H]1C[C@H]3O (stereo partly shown) [Compound 371] |  |  |  |  | effects like those produced by compound 1436 | Vascular reactivity (capillary regression) ([7]; 0.001 μg applied): 0; Vascular reactivity (capillary regression) ([7]; 0.01 μg applied): 0; Vascular reactivity (capillary regression) ([7]; 0.1 μg applied): 0; Vascular reactivity (capillary regression) ([7]; 1 μg applied): +/−; Vascular reactivity (capillary regression) ([7]; 10 μg applied): +
15 | COC(=O)CCC(C)[C@H]1CCC2C3CC[C@H]4C[C@@H](NCCCNCCCCNCCCN)CC[C@]4(C)C3CC[C@@]21C (stereo partly shown) [Compound 459] |  |  |  |  | pharmacologic activity similar to that seen for FX 3 | 
